In patent US4990613A, “(1R,5S,6S)-2-[(6,7-dih ydro-5H-pyrazolo[1,2-a][1,2,4]triazolium-6-yl)]thio-6-[R-1-hydroxyethyl]- 1-methyl-carbapenem-3-carboxylate and intermediate therefor” (Lederle (Japan), Ltd., priority 1987, dated 1991):
≈ marks a conversion by molar mass, not a printed value. Like-named read-outs stand apart in the source and are kept apart here.

Key:
[1] = test system: Providencia rettgeri IFO 3850; experiment: Antibacterial test, agar plate dilution method; details: Providencia rettgeri, IFO3850, 18 h
[2] = test system: Escherichia coli K12 C600; experiment: Antibacterial test, agar plate dilution method; format: cell-based; details: Escherichia coli, K12C600; 37° C., 18 hours, MH agar; read-out: MIC
[3] = test system: Salmonella schottmuelleri 8006; experiment: Antibacterial test, agar plate dilution method; details: Salmonella, 8006, 18 h
Serratia marcescens L-65 = experiment: Antibacterial activity against clinically isolated β-lactamase producing strains; format: cell-based; details: Serratia marcescens, L65; cephalosporinase producing strain, 18 to 20 hours; read-out: MIC
Description: (§1) A solution of a cephalosporinase producing strain stored by Episome Research Institute, which was prepared by incubating the strain in a sensitivity test broth (STB; product of Nissui K.K.) for 18 hours, was diluted with a fresh STB solution to contain 10^5 cells per milliliter and the diluted solution was then inoculated as spots with a microplanter on a sensitivity disk agar-N (SDA; product of Nissui K.K.) containing a test compound. The disk agar was then incubated for 18 to 20 hours. A minimum inhibitory concentration was determined as a minimum concentration in which the test microorganism had no longer grown after a 18 to 20 hour incubation.

Escherichia coli GN 5482 = experiment: as above; format: cell-based; details: Escherichia coli, GN5482; cephalosporinase producing strain, 18 to 20 hours; read-out: MIC
Description: as §1

Proteus morganii GN 5375 = experiment: as above; format: cell-based; details: Morganella morganii, GN5375
Description: as §1

[4] = test system: Serratia marcescens GN 10857; experiment: as above; format: cell-based; details: Serratia marcescens, GN10857
Description: as §1

[5] = test system: Escherichia coli No. 1501; experiment: as above; format: cell-based; details: Escherichia coli, NO.1501; cephalosporinase producing strain, 18 to 20 hours; read-out: MIC
Description: as §1

[6] = test system: Providencia rettgeri GN 5284; experiment: as above; format: cell-based; details: Providencia rettgeri, GN5284; cephalosporinase producing strain, 18 to 20 hours; read-out: MIC
Description: as §1

Escherichia coli No. 96 = experiment: as above; format: cell-based; details: Escherichia coli, NO.96; cephalosporinase producing strain, 18 to 20 hours; read-out: MIC
Description: as §1

Proteus morganii GN 5307 = experiment: as above; format: cell-based; details: Morganella morganii, GN5307; cephalosporinase producing strain, 18 to 20 hours; read-out: MIC
Description: as §1

[7] = test system: Providencia rettgeri GN 4430; experiment: as above; format: cell-based; details: Providencia rettgeri, GN4430; cephalosporinase producing strain, 18 to 20 hours; read-out: MIC
Description: as §1

Proteus vulgaris GN 7919 = experiment: as above; format: cell-based; details: Proteus vulgaris, GN7919
Description: as §1

[8] = test system: Citrobactor freundii GN 7391; experiment: as above; format: cell-based; details: cephalosporinase producing strain, 18 to 20 hours; read-out: MIC
Description: as §1

[9] = test system: Citrobactor freundii GN 346; experiment: as above; format: cell-based; details: cephalosporinase producing strain, 18 to 20 hours; read-out: MIC
Description: as §1

[10] = test system: Pseudomonas cepacia GN 11164; experiment: as above; format: cell-based; details: Burkholderia cepacia, GN11164
Description: as §1

Proteus morganii GN 5407 = experiment: as above; format: cell-based; details: Morganella morganii, GN5407
Description: as §1

Proteus vulgaris GN 4413 = experiment: as above; format: cell-based; details: Proteus vulgaris, GN4413
Description: as §1

[11] = test system: Pseudomonas aeruginosa GN 10367; experiment: as above; format: cell-based; details: Pseudomonas aeruginosa, GN10367
Description: as §1

[12] = test system: Providencia rettgeri GN 4762; experiment: as above; format: cell-based; details: Providencia rettgeri, GN4762; cephalosporinase producing strain, 18 to 20 hours; read-out: MIC
Description: as §1

[13] = test system: Pseudomonas aeruginosa GN 10362; experiment: as above; format: cell-based; details: Pseudomonas aeruginosa, GN10362
Description: as §1

[14] = test system: Klebsiella oxytoca GN 10650; experiment: as above; format: cell-based; details: Klebsiella oxytoca, GN10650; cephalosporinase producing strain, 18 to 20 hours; read-out: MIC
Description: as §1

[15] = test system: Enterobacter cloacae GN 5797; experiment: as above; format: cell-based; details: Enterobacter cloacae, GN5797; cephalosporinase producing strain, 18 to 20 hours; read-out: MIC
Description: as §1

Serratia marcescens L-82 = experiment: as above; format: cell-based; details: Serratia marcescens, L82; cephalosporinase producing strain, 18 to 20 hours; read-out: MIC
Description: as §1

Salmonella typhi 901 = experiment: Antibacterial test, agar plate dilution method; format: cell-based; details: Salmonella enterica, TYPHI, 18 h
[16] = test system: Pseudomonas aeruginosa NCTC 10490; experiment: Antibacterial test, agar plate dilution method; details: Pseudomonas aeruginosa, NCTC10490, 18 h
[17] = test system: Enterobacter aerougenes ATCC13048; experiment: Antibacterial test, agar plate dilution method; details: Enterobacter, ATCC13048, 18 h
[18] = test system: Streptococcus pyogenes Cook; experiment: Antibacterial test, agar plate dilution method; details: Streptococcus pyogenes, 18 h
[19] = test system: Staphylococcus aureus MS352; experiment: Antibacterial test, agar plate dilution method; details: Staphylococcus aureus, MS352, 18 h
[20] = test system: Salmonella paratyphi 1015; experiment: Antibacterial test, agar plate dilution method; format: cell-based; details: Salmonella enterica, PARATYPHI, 18 h
[21] = test system: Micrococcus luteus ATCC9341; experiment: Antibacterial test, agar plate dilution method; details: Micrococcus luteus, ATCC9341, 18 h
[22] = cephalosporinase producing strain, 18 to 20 hours, read-out: MIC

| SMILES | MIC [1] [µg/mL] | MIC [2] [µg/mL] | MIC [3] [µg/mL] | MIC (Serratia marcescens L-65) [µg/mL] | MIC (Escherichia coli GN 5482) [µg/mL] | MIC [5] [µg/mL] | MIC [6] [µg/mL] | MIC (Escherichia coli No. 96) [µg/mL] | MIC (Proteus morganii GN 5307) [µg/mL] | MIC [7] [µg/mL] | MIC [8] [µg/mL] | MIC [9] [µg/mL] | MIC [11] [µg/mL] | MIC [12] [µg/mL] | MIC [14] [µg/mL] | MIC [15] [µg/mL] | MIC (Serratia marcescens L-82) [µg/mL] | MIC (Salmonella typhi 901) [µg/mL] | MIC [16] [µg/mL] | MIC [17] [µg/mL] | also measured |
| --- | --- | --- | --- | --- | --- | --- | --- | --- | --- | --- | --- | --- | --- | --- | --- | --- | --- | --- | --- | --- | --- |
| Cc1nnc(SCC2=C(C(=O)O)N3C(=O)[C@@H](NC(=O)Cn4cnnn4)[C@H]3SC2)s1 [CEZ] | 12.5 (≈ 27.5 µM) | 0.78 (≈ 1.72 µM) | 0.78 (≈ 1.72 µM) | 0.2 (≈ 0.44 µM) | 0.78 (≈ 1.72 µM) | 0.2 (≈ 0.44 µM) | 0.2 (≈ 0.44 µM) | 0.78 (≈ 1.72 µM) | 0.2 (≈ 0.44 µM) | 0.2 (≈ 0.44 µM) | > 100 | 25 (≈ 55 µM) | 3.13 (≈ 6.89 µM) | 0.78 (≈ 1.72 µM) | 0.2 (≈ 0.44 µM) | 0.39 (≈ 0.858 µM) | 0.39 (≈ 0.858 µM) | 0.78 (≈ 1.72 µM) | > 100 | > 100 | MIC (Proteus morganii GN 5375; [22]): 0.2 µg/mL (≈ 0.44 µM); MIC [4, 22]: 0.78 µg/mL (≈ 1.72 µM); MIC (Proteus vulgaris GN 7919): 3.13 µg/mL (≈ 6.89 µM); MIC [10, 22]: 0.78 µg/mL (≈ 1.72 µM); MIC (Proteus morganii GN 5407; [22]): 0.39 µg/mL (≈ 0.858 µM); MIC (Proteus vulgaris GN 4413; [22]): 0.2 µg/mL (≈ 0.44 µM); MIC [13]: 3.13 µg/mL (≈ 6.89 µM); MIC [18]: 0.1 µg/mL (≈ 0.22 µM); MIC [19]: 0.1 µg/mL (≈ 0.22 µM); MIC [20]: 1.56 µg/mL (≈ 3.43 µM); MIC [21]: 0.39 µg/mL (≈ 0.858 µM) |
| C[C@@H](O)[C@H]1C(=O)N2C(C(=O)O)=C(SCCN=CN)C[C@H]12 [Imipenem] | 0.78 (≈ 2.61 µM) | 3.13 (≈ 10.5 µM) | 0.78 (≈ 2.61 µM) | 0.39 (≈ 1.3 µM) | 0.1 (≈ 0.334 µM) | 0.1 (≈ 0.334 µM) | 0.39 (≈ 1.3 µM) | 0.1 (≈ 0.334 µM) | 0.78 (≈ 2.61 µM) | 0.39 (≈ 1.3 µM) | 0.78 (≈ 2.61 µM) | 0.39 (≈ 1.3 µM) | 1.56 (≈ 5.21 µM) | 0.39 (≈ 1.3 µM) | 0.2 (≈ 0.668 µM) | 0.39 (≈ 1.3 µM) | 0.2 (≈ 0.668 µM) | 0.1 (≈ 0.334 µM) | 0.78 (≈ 2.61 µM) | 0.2 (≈ 0.668 µM) | MIC (Proteus morganii GN 5375): 3.13 µg/mL (≈ 10.5 µM); MIC [4]: 3.13 µg/mL (≈ 10.5 µM); MIC (Proteus vulgaris GN 7919; [22]): 0.39 µg/mL (≈ 1.3 µM); MIC [10]: 3.13 µg/mL (≈ 10.5 µM); MIC (Proteus morganii GN 5407): 3.13 µg/mL (≈ 10.5 µM); MIC (Proteus vulgaris GN 4413): 6.25 µg/mL (≈ 20.9 µM); MIC [13, 22]: 0.78 µg/mL (≈ 2.61 µM); MIC [18]: < 0.006 µg/mL; MIC [19]: 0.013 µg/mL (≈ 0.0434 µM); MIC [20]: 1.56 µg/mL (≈ 5.21 µM); MIC [21]: 0.025 µg/mL (≈ 0.0835 µM) |
